Assay results as given in the NIST ThermoML archive (doi:10.1021/acs.jced.6b00606).

Legend:
[1] = xn = mol fraction of the nth substance listed; details: 100 kPa, Liquid; for speed of sound: Frequency=3 MHz, Sing-around technique in a fixed-path interferometer; for mass density: Vibrating tube method
[2] = excess molar enthalpy (molar enthalpy of mixing); xn = mol fraction of the nth substance listed; details: 308.15 K, 100 kPa, Liquid, Calvet calorimetry

O=C1CCCCC1 [cyclohexanone] + C1CCOCC1
[1]
Details	mass density, 303.15 K [kg/m3]	mass density, 308.15 K [kg/m3]	speed of sound, 303.15 K [m/s]	speed of sound, 308.15 K [m/s]
x2 = 0.1175	932.48	927.65	–	1353.2
x2 = 0.1586	930.42	925.6	–	1345.6
x2 = 0.1952	928.55	923.74	–	1339.1
x2 = 0.2471	925.82	921.01	–	1329.8
x2 = 0.2843	923.82	919.01	–	1323.4
x2 = 0.3396	920.76	915.96	–	1314
x2 = 0.3784	918.56	913.76	–	1307.6
x2 = 0.4178	916.26	911.46	–	1301.2
x2 = 0.462	913.62	908.82	–	1294.2
x2 = 0.5009	911.24	906.44	1309.9	1288.3
x2 = 0.5486	908.24	903.43	1302.9	1281.1
x2 = 0.5814	906.13	901.31	1298.2	1276.3
x2 = 0.6379	902.35	897.53	1290.3	1268.3
x2 = 0.6899	898.75	893.91	1283.4	1261.3
x2 = 0.7389	895.23	890.37	1277	1254.8
x2 = 0.7804	892.14	887.26	1271.8	1249.6
x2 = 0.8345	887.96	883.04	1265.3	1242.9
x2 = 0.8929	883.23	878.25	1258.5	1236.1

[2]
Details	excess molar enthalpy [kcal/mol]
x2 = 0.0989	0.0098
x2 = 0.1475	0.014
x2 = 0.1926	0.017
x2 = 0.2415	0.0206
x2 = 0.2953	0.0231
x2 = 0.3416	0.0253
x2 = 0.3952	0.0268
x2 = 0.4426	0.0274
x2 = 0.4956	0.0276
x2 = 0.5425	0.0271
x2 = 0.5982	0.0257
x2 = 0.641	0.0244
x2 = 0.6825	0.0227
x2 = 0.7333	0.02
x2 = 0.7865	0.0167
x2 = 0.8359	0.0132
x2 = 0.8875	0.0093
x2 = 0.9299	0.00576
